A short description of data set [1]: in vitro. The following applies: for Analyte Peak/IS Peak Ares (Mean), T60-blood / Analyte Peak/IS Peak Ares (Mean), T60-plasma: 60 min; for Analyte Peak/IS Peak Ares (Mean), T60-blood / Analyte Peak/IS Peak Ares (Mean), T60-plasma / Analyte Peak/IS Peak Ares (Mean), T0: 2 μM; for Analyte Peak/IS Peak Ares (Mean), T0: 0 min. On the procedure:
All working solutions were freshly prepared similarly as described for the test article working solution.
Assay for determining Blood to plasma ratio: Pooled male CD-1 mouse, Sprague-Dawley rat, beagle dog and cynomolgus monkey plasma, and mixed gender human blood with EDTAK2 as anticoagulant were stored on wet ice and used the same day. […] After mixing thoroughly, 0.6 mL of spiked blood was transferred to a 96-well plate in triplicate. Concurrently, control compounds were spiked into each species blood in the same fashion to generate the final concentration of 2.0 μM.
The rest of the spiked blood samples were immediately placed into a humidified incubator with 5% CO2 at 37° C., with constant swiveling at 500 rpm for 60 min on a platform shaker. […] The T60-plasma samples for analysis were obtained by taking 50 μL of plasma from each well, mixed with 50 μL of blank blood and 100 μL of water, followed by addition of 600 μL stop solution. […] All the T0, T60-blood and T60-plasma samples were shaken vigorously at 800 rpm for 30 min followed by the centrifugation at 3220×g at 20° C. for 20 min. 100 μL aliquot of supernatant was diluted with 100 μL of water and mixed well for LC-MS/MS analysis.
Measurement of Hematocrit: The hematocrit (the volume percentage of erythrocytes in blood) was determined in triplicate for each species by centrifuging the blood samples with a HAEMATOKRIT 200 at 9440×g for 5 min.
Data analysis: The ratio of compound concentrations in whole blood over plasma (KB/P) and % Recovery in blood were calculated by the following equations: KB/P=[…]([T60-blood]/[T60-plasma]), where [T60-blood] is the peak area ratios of analyte/internal standard in whole blood sample at 60 min; [T60-plasma] is the peak area ratios of analyte/internal standard in plasma sample at 60 min; [T0-blood] is the peak area ratios of analyte/internal standard in whole blood sample at time zero.

The target of a further data set is CYP2C9 (Homo sapiens, UniProt P11712). Particulars: 20 min, 6 μM, pH 7.4.
The target of another data set is CYP1A2 (Homo sapiens, UniProt P05177). Particulars: 20 min, 50 μM, pH 7.4.
Data set [2] is described as follows: in vitro. Particulars: dog, MDCK-MDR1, pH 7.4.
Data set [3] can be described thus: cell batch quality control, BCRP-MDCK monolayers. Format: in vitro ADME. Particulars: dog; BCRP-MDCK cell batch QC; passage 23. On the procedure:
BCRP-MDCK cell monolayers were prepared at Absorption Systems. […] Each determination was performed in duplicate.

Data set [4] in a line: CYP Control (negative control without CYP enzymes) in hrCYP reaction phenotyping. Particulars: S-mephenytoin 20 μM, metabolite 4′ - OH Mephenytoin.
Data set [5] is described as follows: metabolic stability in cryopreserved hepatocytes. Format: in vitro ADME, dog. The following applies: Dog cryopreserved hepatocytes. On the procedure: (§1) Mixed-gender human cryopreserved hepatocytes, male Sprague-Dawley rat cryopreserved hepatocytes, male CD-1 mouse cryopreserved hepatocytes, male beagle dog cryopreserved hepatocytes, and male cynomolgus monkey cryopreserved hepatocytes were used for the study. The hepatocytes were thawed, pooled into Krebs Henseleit buffer (KHB, pH 7.4), and kept on ice prior to the experiments. […] Each experiment was performed in triplicate. The final DMSO content in the incubation mixture was ≤0.1%. […] Aliquots of testosterone were withdrawn (n=1) at 0, 5, 15, 30, 60, and 120 minutes. Aliquots of 7-HC were withdrawn (n=1) at 0 and 15 minutes. The reaction was immediately terminated by adding three volumes of ice-cold MeCN containing IS. The samples were then mixed and spun by centrifuge to precipitate proteins. An aliquot of the supernatant was then diluted with water. Calibration standards for the analysis of 7-HC metabolites were prepared in matched matrix. […] All samples were analyzed by LC-MS/MS. The peak area response ratio (PARR) vs. IS was compared to the PARR at time 0 to determine the percent remaining at each time point. Half-lives and clearance values were calculated using GraphPad software, fitting to a single-phase exponential decay equation.
(§2) Mixed-gender human cryopreserved hepatocytes, male Sprague-Dawley rat cryopreserved hepatocytes, male CD-1 mouse cryopreserved hepatocytes, male beagle dog cryopreserved hepatocytes, and male cynomolgus monkey cryopreserved hepatocytes were thawed and pooled into KHB buffer (pH 7.4) and kept on ice prior to the experiments. […] Each experiment was performed in triplicate. The final DMSO content in the incubation mixture was ≤0.1%.
Aliquots of testosterone were withdrawn (n=1) at 0, 5, 15, 30, 60, and 120 minutes. Aliquots of 7-HC were withdrawn (n=1) at 0 and 15 minutes. The reaction was immediately terminated by adding three volumes of ice-cold MeCN containing IS. The samples were then mixed and spun by centrifuge to precipitate proteins. An aliquot of the supernatant was then diluted with water. Calibration standards for the analysis of 7-HC metabolites were prepared in matched matrix. […] All samples were analyzed by LC-MS/MS. Analytical conditions are outlined below. The peak area response ratio (PARR) vs. IS was compared to the PARR at time 0 to determine the percent remaining at each time point. Half-lives and clearance values were calculated using GraphPad software, fitting to a single-phase exponential decay equation.

Data set [6] can be described thus: metabolic stability in cryopreserved hepatocytes. It is filed as in vitro ADME, cynomolgus monkey. Particulars: Monkey cryopreserved hepatocytes. Here is the method: as §1, with “≤0.1%. […] Positive controls, testosterone (1 μM) and 7-hydroxycoumarin (7-HC) (100 μM), were performed in parallel to confirm the activity of the hepatocytes.” for “≤0.1%.”
as §2
(§3) Positive controls, testosterone (1 μM) and 7-hydroxycoumarin (7-HC) (100 μM), were performed in parallel to confirm the activity of the hepatocytes. […] Aliquots of testosterone were withdrawn (n=1) at 0, 5, 15, 30, 60, and 120 minutes. Aliquots of 7-HC were withdrawn (n=1) at 0 and 15 minutes. The reaction was immediately terminated by adding three volumes of ice-cold MeCN containing IS. The samples were then mixed and spun by centrifuge to precipitate proteins. An aliquot of the supernatant was then diluted with water. Calibration standards for the analysis of 7-HC metabolites were prepared in matched matrix. […] All samples were analyzed by LC-MS/MS. Analytical conditions are outlined below. The peak area response ratio (PARR) vs. IS was compared to the PARR at time 0 to determine the percent remaining at each time point. Half-lives and clearance values were calculated using GraphPad software, fitting to a single-phase exponential decay equation.

Another data set deals with human hepatocytes. Nature of the data set: metabolic stability in cryopreserved hepatocytes. Format: in vitro ADME. The following applies: Human cryopreserved hepatocytes; positive control, 1 μM. Here is the method: as §1, with “≤0.1%. […] Positive controls, testosterone (1 μM) and 7-hydroxycoumarin (7-HC) (100 μM), were performed in parallel to confirm the activity of the hepatocytes.” for “≤0.1%.”
as §2, §3

The nature of data set [7]: metabolic stability in cryopreserved hepatocytes. It is filed as in vitro ADME, human. The following applies: both sexes, pH 7.4; Human cryopreserved hepatocytes; positive control 1 μM. Here is the method:
as §1, with “≤0.1%. […] Positive controls, testosterone (1 μM) and 7-hydroxycoumarin (7-HC) (100 μM), were performed in parallel to confirm the activity of the hepatocytes.” for “≤0.1%.”
as §2, §3

Data set [8] in a line: metabolic stability in cryopreserved hepatocytes. It is filed as in vitro ADME, mouse. Particulars: Mouse cryopreserved hepatocytes. On the procedure: as §1, with “≤0.1%. […] Positive controls, testosterone (1 μM) and 7-hydroxycoumarin (7-HC) (100 μM), were performed in parallel to confirm the activity of the hepatocytes.” for “≤0.1%.”
as §2, §3

The nature of data set [9]: metabolic stability in cryopreserved hepatocytes. Format: in vitro ADME, rat. Particulars: Rat cryopreserved hepatocytes. Here is the method:
as §1, with “≤0.1%. […] Positive controls, testosterone (1 μM) and 7-hydroxycoumarin (7-HC) (100 μM), were performed in parallel to confirm the activity of the hepatocytes.” for “≤0.1%.”
as §2, §3

Setting [10] is: male, beagle, pH 7.4, positive control 1 μM.
Where [11] appears, read: male, CD-1, pH 7.4, positive control 1 μM.

The structures appear in SMILES notation. Where two headings read alike, the source gives them in different places.

Sequence of CYP1A2 (P05177 whole entry): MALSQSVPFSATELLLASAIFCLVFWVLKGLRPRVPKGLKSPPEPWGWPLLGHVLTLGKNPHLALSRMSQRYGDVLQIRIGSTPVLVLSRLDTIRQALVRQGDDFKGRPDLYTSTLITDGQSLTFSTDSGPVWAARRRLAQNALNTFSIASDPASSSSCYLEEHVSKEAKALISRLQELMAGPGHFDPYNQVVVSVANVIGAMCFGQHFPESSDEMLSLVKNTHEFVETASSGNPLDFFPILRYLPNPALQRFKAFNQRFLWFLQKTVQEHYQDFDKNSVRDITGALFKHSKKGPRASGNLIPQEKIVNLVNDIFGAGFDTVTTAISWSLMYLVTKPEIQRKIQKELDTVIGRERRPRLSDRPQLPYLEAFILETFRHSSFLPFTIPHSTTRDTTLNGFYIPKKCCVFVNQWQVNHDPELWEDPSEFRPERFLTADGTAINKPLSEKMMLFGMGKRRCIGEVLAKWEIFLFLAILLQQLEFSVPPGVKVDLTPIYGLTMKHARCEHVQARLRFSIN
Sequence of CYP2C9 (P11712 whole entry): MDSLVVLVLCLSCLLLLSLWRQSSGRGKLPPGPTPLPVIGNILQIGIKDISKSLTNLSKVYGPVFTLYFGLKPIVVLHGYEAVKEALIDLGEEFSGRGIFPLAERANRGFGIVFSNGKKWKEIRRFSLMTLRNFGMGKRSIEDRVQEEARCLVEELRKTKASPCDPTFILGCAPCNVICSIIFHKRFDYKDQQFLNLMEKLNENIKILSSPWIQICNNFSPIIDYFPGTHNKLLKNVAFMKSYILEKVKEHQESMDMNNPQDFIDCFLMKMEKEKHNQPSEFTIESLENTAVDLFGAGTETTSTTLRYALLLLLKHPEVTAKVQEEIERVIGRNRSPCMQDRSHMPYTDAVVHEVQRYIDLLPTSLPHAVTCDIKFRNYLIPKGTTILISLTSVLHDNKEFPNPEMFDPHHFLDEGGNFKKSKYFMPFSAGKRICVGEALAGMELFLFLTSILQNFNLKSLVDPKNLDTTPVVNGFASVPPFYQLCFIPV

For `O=C(O)Cc1ccccc1Nc1c(Cl)cccc1Cl` [Diclofenac], the recovery at 60 min, 2 μM in the data set “in vitro [1]” (both, human) was determined as 91.2 ± 4.43%; in “in vitro [1]” (male, CD-1, mouse) it was 100 ± 6.79%; in “in vitro [1]” (male, Sprague-Dawley, rat) it was 100 ± 3.45%; in “in vitro [1]” (male, beagle, dog) it was 104 ± 1.36%; in the data set “in vitro [1]” (male, cynomolgus monkey), 101 ± 8.23%. In addition, the “Analyte Peak/IS Peak Ares (Mean), T60-blood” value in the data set “in vitro [1]” (both, human) is recorded as 0.311; in the data set “in vitro [1]” (male, CD-1, mouse) it was 0.365; in the data set “in vitro [1]” (male, Sprague-Dawley, rat), 0.331; in the data set “in vitro [1]” (male, beagle, dog), 0.313; in the data set “in vitro [1]” (male, cynomolgus monkey), 0.318. Besides, the “Analyte Peak/IS Peak Ares (Mean), T60-plasma” value in the data set “in vitro [1]” (both, human) was 0.473; in the data set “in vitro [1]” (male, CD-1, mouse), 0.501; in “in vitro [1]” (male, Sprague-Dawley, rat), 0.480; in “in vitro [1]” (male, beagle, dog) it was 0.484; in the data set “in vitro [1]” (male, cynomolgus monkey), 0.513. The “Analyte Peak/IS Peak Ares (Mean), T0” value in the data set “in vitro [1]” (male, Sprague-Dawley, rat) came to 0.330; in the data set “in vitro [1]” (male, beagle, dog), 0.301; in the data set “in vitro [1]” (male, cynomolgus monkey), 0.314. Moreover, the “Formation Rate” value at CYP2C9 is on record as 650 pmol metabolite/min/mg Supersome protein. Further, the “Measured Metabolite” value at CYP2C9 amounted to 0.676 µM.
Consider `CCOc1ccc(NC(C)=O)cc1` [Phenacetin], for which, at CYP1A2, the “Formation Rate” value is reported as 1819 pmol metabolite/min/mg Supersome protein and the “Measured Metabolite” value came out at 3.71 µM.
As for `CC(C)NCC(O)COc1cccc2ccccc12` (stereo not shown) [Propranolol], the Papp at 120 min in “in vitro [2]” was 20.3 ×10⁻⁶ cm/s. In addition, the Papp in data set [3] is 20.1 ×10⁻⁶ cm/s.
`CC[C@@]1(c2ccccc2)NC(=O)N(C)C1=O` [S-mephenytoin]: in [4], the “Formation Rate” value is recorded as 0 pmol metabolite/min/mg Supersome protein and the “Measured Metabolite” value was 0 µM.
For the compound `C[C@]12CC[C@H]3[C@@H](CCC4=CC(=O)CC[C@@]43C)[C@@H]1CC[C@@H]2O` [testosterone], the CLint in data set [5] (positive control, 1 μM) is recorded as 0.0672 mL/min/10^6 cells; in data set [6] (positive control, 1 μM) it was 0.150 mL/min/10^6 cells; in the data set with human hepatocytes, 0.108 mL/min/10^6 cells; in [8] (positive control, 1 μM) it was 0.181 mL/min/10^6 cells; in data set [9] (positive control, 1 μM), 0.405 mL/min/10^6 cells. Further, the half-life in data set [5] (setting [10]) was found to be 6.88 min; in data set [6] (positive control 1 μM), 3.08 min; in data set [6] (positive control, 1 μM) it was 3.08 min; in data set [7] it was 4.28 min; in data set [8] (setting [11]), 2.55 min; in data set [9] (positive control, 1 μM), 1.14 min. The half-life in [9] (male, Sprague-Dawley, pH 7.4, positive control 1 μM, read-out: Half-life) was determined as 1.14 min. In addition, the intrinsic clearance (hepatocyte CLint) in data set [5] (setting [10]) is 67.2 µL/min/1e6 cells; in data set [6] (male, pH 7.4, positive control 1 μM), 150 µL/min/1e6 cells; in [7], 108 µL/min/1e6 cells; in data set [8] (setting [11]), 181 µL/min/1e6 cells; in data set [9] (male, Sprague-Dawley, pH 7.4, positive control 1 μM), 405 µL/min/1e6 cells.

For the origin of these results see US20230049952A1, “METHODS AND COMPOUNDS FOR RESTORING MUTANT P53 FUNCTION” (PMV Pharmaceuticals, Inc., priority 2020, published 2023).
